From US9409884B2 (Rigel Pharmaceuticals, Inc., priority 2012, dated 2016)

biological target: AMPK; test: AMPK activation, enzyme-linked immunosorbent assay; assay type: biochemical; conditions: Table 8, compounds of Table 1
In short: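 AMPK activation by test compounds was measured by enzyme-linked immunosorbent assay.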

EC50 | Structure (SMILES)
0.1 to 0.5 µM | O=C(NC1CCN(S(=O)(=O)c2cccnc2)CC1)c1cc2ccc(OC3CCN(c4ccc(OC(F)(F)F)cc4)CC3)cc2o1 [Compound 1-108, N-(1-(pyridin-3-ylsulfonyl)piperidin-4-yl)-6-(1-(4-(trifluoromethoxy)phenyl)piperidin-4-yloxy)benzofuran-2-carboxamide]
< 0.1 µM | CN(C(=O)c1cc2cc(OC3CCN(c4ccc(C(F)(F)F)cc4)CC3)ccc2o1)C1CCN(Cc2ccccn2)CC1 [Compound 1-117, N-methyl-N-(1-(pyridin-2-ylmethyl)piperidin-4-yl)-5-(1-(4-(trifluoromethyl)phenyl)piperidin-4-yloxy)benzofuran-2-carboxamide]
> 10 µM | O=C(NC1CCNCC1)c1cc2cc(OC3CCN(c4ccc(C(F)(F)F)cc4)CC3)ccc2o1 [Compound 1-86, N-(piperidin-4-yl)-5-(1-(4-(trifluoromethyl)phenyl)piperidin-4-yloxy)benzofuran-2-carboxamide]
< 0.1 µM | N#Cc1ccc(-n2cc(CN3CC[C@@H](Oc4ccc5oc(C(=O)NC6CCN(Cc7ccc(OC(F)(F)F)cc7)CC6)cc5c4)[C@H](F)C3)cn2)cc1 [Compound 1-171, 5-((3,4-trans)-1-((1-(4-cyanophenyl)-1H-pyrazol-4-yl)methyl)-3-fluoropiperidin-4-yloxy)-N-(1-(4-(trifluoromethoxy)benzyl)piperidin-4-yl)benzofuran-2-carboxamide]
1 to 5 µM | O=S(=O)(NC1CCNCC1)c1ccc(OC2CCN(c3ccc(C(F)(F)F)cc3)CC2)nc1 [Compound 1-55, N-(piperidin-4-yl)-6-(1-(4-(trifluoromethyl)phenyl)piperidin-4-yloxy)pyridine-3-sulfonamide]
0.1 to 0.5 µM | O=C(NC1CCN(Cc2ccccc2)CC1)c1cc2cc(OC3CCN(Cc4ccc(F)c(F)c4)CC3)ccc2o1 [Compound 1-74, N-(1-benzylpiperidin-4-yl)-5-(1-(3,4-difluorobenzyl)piperidin-4-yloxy)benzofuran-2-carboxamide]
1 to 5 µM | O=C(N[C@H]1CCN(Cc2cccnc2)C1)c1cc2cc(OC3CCN(Cc4ccc(Cl)cc4)CC3)ccc2o1 [Compound 1-130, (S)-5-(1-(4-chlorobenzyl)piperidin-4-yloxy)-N-(1-(pyridin-3-ylmethyl)pyrrolidin-3-yl)benzofuran-2-carboxamide]

same assay, conditions: Table 9, compounds of Table 2

EC50 | Structure (SMILES)
1 to 5 µM | O=C(NC1CCN(S(=O)(=O)c2ccc(Cl)cc2)CC1)c1ccc2[nH]c3c(c2c1)CN(Cc1ccc(C(F)(F)F)cc1)CC3 [Compound 2-32, N-(1-(4-chlorophenylsulfonyl)piperidin-4-yl)-2-(4-(trifluoromethyl)benzyl)-2,3,4,5-tetrahydro-1H-pyrido[4,3-b]indole-8-carboxamide]
1 to 5 µM | Cn1c2c(c3cc(C(=O)NC4CCN(Cc5cccnc5)CC4)ccc31)CN(Cc1ccc(C(F)(F)F)cc1)CC2 [Compound 2-18, 5-methyl-N-(1-(pyridin-3-ylmethyl)piperidin-4-yl)-2-(4-(trifluoromethyl)benzyl)-2,3,4,5-tetrahydro-1H-pyrido[4,3-b]indole-8-carboxamide]

same assay, conditions: Table 10, compounds of Table 3

EC50 | Structure (SMILES)
< 0.1 µM | N#Cc1ccc(CN2CCC(NC(=O)c3ccc(C(=O)N4CCN(Cc5ccc(Cl)cc5)CC4)cc3)CC2)cc1 [Compound 3-28, 4-(4-(4-chlorobenzyl)piperazine-1-carbonyl)-N-(1-(4-cyanobenzyl)piperidin-4-yl)benzamide]
< 0.1 µM | N#Cc1ccc(CN2CCC(NC(=O)c3ccc4c(c3)CN(Cc3ccc(F)cc3)CC4)CC2)cc1 [Compound 3-34, N-(1-(4-cyanobenzyl)piperidin-4-yl)-2-(4-fluorobenzyl)-1,2,3,4-tetrahydroisoquinoline-7-carboxamide]
10 to 100 µM | N#Cc1ccc(CN2CCC(NC(=O)c3ccc(C(=O)N4CCN(c5ccc(Cl)cc5)CC4)cc3)CC2)cc1 [Compound 3-29, 4-(4-(4-chlorophenyl)piperazine-1-carbonyl)-N-(1-(4-cyanobenzyl)piperidin-4-yl)benzamide]
1 to 10 µM | CC(C)(C)OC(=O)N1CCC(NC(=O)c2cnc(OC3CCN(c4ccc(C(F)(F)F)cc4)CC3)cn2)CC1 [Compound 3-19, tert-butyl 4-(5-(1-(4-(trifluoromethyl)phenyl)piperidin-4-yloxy)pyrazine-2-carboxamido)piperidine-1-carboxylate]

same assay, conditions: Table 12, compounds of Table 5

EC50 | Structure (SMILES)
< 1 µM | O=C(NC1CCN(Cc2ccccc2)CC1)c1cc(Cl)c(OC2CCN(Cc3ccc(F)c(F)c3)CC2)c(Cl)c1 [Compound 5-76, N-(1-benzylpiperidin-4-yl)-3,5-dichloro-4-(1-(3,4-difluorobenzyl)piperidin-4-yloxy)benzamide]
10 to 20 µM | CC(C)(C)OC(=O)NCCCNC(=O)c1ccc(OC2CCN(Cc3ccccc3)CC2)c(Cl)c1 [Compound 5-102, tert-butyl 3-(4-(1-benzylpiperidin-4-yloxy)-3-chlorobenzamido) propylcarbamate]
< 1 µM | O=C(NC1CCN(C(=O)c2ccc(F)cc2)CC1)c1ccc(OC2CCN(c3ccc(C(F)(F)F)cc3)CC2)c(F)c1 [Compound 5-31, 3-fluoro-N-(1-(4-fluorobenzoyl)piperidin-4-yl)-4-(1-(4-(trifluoromethyl)phenyl)piperidin-4-yloxy)benzamide]
< 1 µM | O=C(NC1CCN(Cc2ccc(F)cc2)CC1)c1ccc(OC2CCN(Cc3ccc(Cl)cc3)CC2)c(Cl)c1 [Compound 5-66, 3-chloro-4-(1-(4-chlorobenzyl)piperidin-4-yloxy)-N-(1-(4-fluorobenzyl)piperidin-4-yl)benzamide]
< 1 µM | N#Cc1ccc(CN2CCC(Oc3ccc(C(=O)NC4CCN(Cc5ccncc5)CC4)cc3)CC2)cc1 [Compound 5-83, 4-(1-(4-cyanobenzyl)piperidin-4-yloxy)-N-(1-(pyridin-4-ylmethyl)piperidin-4-yl)benzamide]
< 1 µM | O=C(NC1CCN(Cc2ccccc2)CC1)c1ccc(OC2CCN(Cc3ccc(C(F)(F)F)cc3)CC2)c(Cl)c1 [Compound 5-56, N-(1-benzylpiperidin-4-yl)-3-chloro-4-(1-(4-(trifluoromethyl)benzyl)piperidin-4-yloxy)benzamide]
< 1 µM | N#Cc1ccc(CN2CCC(NC(=O)c3cccc(OC4CCN(Cc5cnn(-c6ccc(F)cc6)c5)CC4)c3)CC2)cc1 [Compound 5-122, N-(1-(4-cyanobenzyl)piperidin-4-yl)-3-(1-((1-(4-fluorophenyl)-1H-pyrazol-4-yl)methyl)piperidin-4-yloxy)benzamide]
< 1 µM | N#Cc1ccc(CN2CCC(NC(=O)c3cccc(O[C@@H]4CCN(Cc5ccc(C(F)(F)F)cc5)C[C@H]4F)c3)CC2)cc1 [Compound 5-126, N-(1-(4-cyanobenzyl)piperidin-4-yl)-3-((3,4-trans)-3-fluoro-1-(4-(trifluoromethyl)benzyl)piperidin-4-yloxy)benzamide]
< 1 µM | COc1cc(C(=O)NC2CCN(Cc3ccccc3)CC2)ccc1OC1CCN(CCCc2ccccc2)CC1 [Compound 5-7, N-(1-benzylpiperidin-4-yl)-3-methoxy-4-(1-(3-phenylpropyl)piperidin-4-yloxy)benzamide]

same assay, conditions: Table 13, compounds of Table 6

EC50 | Structure (SMILES)
< 0.1 µM | N#Cc1ccc(CN2CCC(NC(=O)c3cc4cc(CN5CCC(Oc6ccc(C#N)cc6)CC5)ccc4o3)CC2)cc1 [Compound 6-14, N-(1-(4-cyanobenzyl)piperidin-4-yl)-5-((4-(4-cyanophenoxy)piperidin-1-yl)methyl)benzofuran-2-carboxamide]
< 0.1 µM | COc1ccc(CN2CCC(NC(=O)c3cc4cc(C(=O)N5CC[C@H](Oc6ccc(S(C)(=O)=O)cc6)[C@@H](F)C5)ccc4o3)CC2)cc1 [Compound 6-114, 5-((3,4-trans)-3-fluoro-4-(4-(methylsulfonyl)phenoxy)piperidine-1-carbonyl)-N-(1-(4-methoxybenzyl)piperidin-4-yl) benzofuran-2-carboxamide]
< 0.1 µM | COc1ccc(CN2CCC(NC(=O)c3cc4ccc(C(=O)N5CCN(Cc6ccc(S(C)(=O)=O)cc6)CC5)cc4o3)CC2)cc1F [Compound 6-5, N-(1-(3-fluoro-4-methoxybenzyl)piperidin-4-yl)-6-(4-(4-(methylsulfonyl)benzyl)piperazine-1-carbonyl) benzofuran-2-carboxamide]
0.1 to 1 µM | Cc1cc(C(=O)Nc2ccc3oc(C(=O)NC4CCN(Cc5ccc(C#N)cc5)CC4)cc3c2)no1 [Compound 6-61, N-(2-(1-(4-cyanobenzyl)piperidin-4-ylcarbamoyl)benzofuran-5-yl)-5-methylisoxazole-3-carboxamide]
< 0.1 µM | CS(=O)(=O)c1cccc(CN2CCN(C(=O)c3ccc4oc(C(=O)NC5CCN(Cc6ccc(-n7cccn7)cc6)CC5)cc4c3)CC2)c1 [Compound 6-153, N-(1-(4-(1H-pyrazol-1-yl)benzyl)piperidin-4-yl)-5-(4-(3-(methylsulfonyl)benzyl)piperazine-1-carbonyl) benzofuran-2-carboxamide]
1 to 10 µM | N#Cc1ccc(CN2CCC(NC(=O)c3cc4cc(NC(=O)C5CCN(Cc6cnn(-c7ccc(C#N)cc7)c6)CC5)ccc4o3)CC2)cc1 [Compound 6-42, N-(2-(1-(4-cyanobenzyl)piperidin-4-ylcarbamoyl)benzofuran-5-yl)-1-((1-(4-cyanophenyl)-1H-pyrazol-4-yl)methyl)piperidine-4-carboxamide]
< 0.1 µM | Cc1cc2oc(C(=O)NC3CCN(Cc4ccc(C#N)cc4)CC3)cc2cc1NC(=O)C1CCN(c2ccc(C#N)cc2)CC1 [Compound 6-126, N-(2-(1-(4-cyanobenzyl)piperidin-4-ylcarbamoyl)-6-methylbenzofuran-5-yl)-1-(4-cyanophenyl)piperidine-4-carboxamide]

same assay, conditions: Table 14, compounds of Table 7

EC50 | Structure (SMILES)
< 1 µM | O=C(Nc1ccc(Oc2ccc(S(F)(F)(F)(F)F)cc2)nc1)c1ccc(C(=O)N2CCC(C(=O)c3ccc(N4CCCC4)cc3)CC2)cn1 [Compound 7-4, 5-(4-(4-(pyrrolidin-1-yl)benzoyl)piperidine-1-carbonyl)-N-(6-(4-(pentafluorosulfanyl)phenoxy)pyridin-3-yl)picolinamide]
< 1 µM | COCCN(C(=O)c1ccc(C(=O)N2CCC(C(=O)c3ccc(OC)cc3)CC2)nc1)C1CCN(Cc2ccc(C#N)cc2)CC1 [Compound 7-17, N-(1-(4-cyanobenzyl)piperidin-4-yl)-6-(4-(4-methoxybenzoyl)piperidine-1-carbonyl)-N-(2-methoxyethyl)nicotinamide]
